Experimental data: patent publication US11931362B2 (CIPLA LIMITED, priority 2019, dated 2024)

Tested on: Escherichia coli, Staphylococcus aureus, Pseudomonas aeruginosa, Candida albicans, and Aspergillus niger
Experiment: Preservative efficacy test, overall outcome
Format: cell-based
Settings: bacteria and fungi
Experimental: Preservative effectiveness tests are compendial-guided assays that determine efficacy for preservative systems in pharmaceutical preparations. In such assays, test formulations are challenged with standardized suspensions of indicator aerobic bacteria and molds and microorganism survival is monitored over a 28-day period. The efficacy of the preservative against various microorganisms was measured using a USP/EP preservative efficacy test. These tests were conducted on Memmert equipment. In the procedure, formulations were tested against the following microorganisms: Escherichia coli, Staphylococcus aureus, Pseudomonas aeruginosa, Candida albicans, and Aspergillus niger. The bacterial strains and fungi were inoculated at a total concentration of […]. Samples were incubated for 7 days at room temperature (25° C.), and the total bacterial and fungal counts were measured using a colony counter. The log reduction (LR) values for the bacterial and fungal counts were calculated as log (initial count/final count).

OCc1ccccc1 [benzyl alcohol]
preservative efficacy test outcome: effective
